Measured values from patent US20070099854A1, “Use of pentadienoic acid derivatives for the treatment of hyperuricemia” (priority 2003, published 2007).

Legend:
[1] = tested on: plasma uric acid concentration; experiment: Hypouricemic effect of compound A in healthy male volunteers, single oral administration; type: in vivo, human (healthy male volunteers); conditions: at 24 hours
Protocol: Hypouricemic effect of compound A in healthy male volunteers
Forty-eight healthy male volunteers received orally either EMD or a placebo as a single administration in the morning. Six doses were administered 50 mg, 100 mg, 200 mg, 400 mg, 800 mg and 1200 mg once daily. In each group of dose, 6 subjects received compound A and 2 subjects received a placebo. Plasma uric acid concentrations were assessed in all dose groups.
The drop of plasma uric acid concentration was around 45% for the lowest tested dose (50 mg) and the maximum effect was observed from the 800 mg dose (80%).
FIG. 1: Mean plasma uric acid concentration in each group of dose before and 24 hours after drug intake (single dose) in subjects receiving compound A.

Row | SMILES | melting point [°C] | also measured
1 | CC(=C/C(=O)O)/C=C/C1=Cc2ccccc2OC1(C)C [Example 5b] | 176 | –
2 | CC(/C=C/C1=C(c2ccccc2)c2ccccc2OC1)=C\C(=O)O [Example 7b] | 258 to 260 | –
3 | CC(/C=C/C1=Cc2ccccc2OC1)=C\C(=O)O [Example 3b] | 226 to 228 | –
4 | CC(=C/C(=O)O)/C=C/C1=Cc2ccccc2OC1 [Example 12b] | 224 to 226 | –
5 | CC(/C=C/C1=Cc2ccccc2OC1(C)C)=C\C(=O)O [Example 4b] | 164 to 166 | –
6 | CCOC(=O)/C=C(C)/C=C/C1=Cc2ccccc2OC1 [Example 3a] | 110 to 112 | –
7 | CC1=C(/C=C/C(C)=C/C(=O)O)COc2ccccc21 [Example 11b] | 216 to 218 | –
8 | CC(/C=C/C1=Cc2ccccc2OC1c1ccccc1)=C\C(=O)O (centres unmarked) [Example 14b] | 200 to 202 | –
9 | COc1ccc2c(c1)C(/C=C/C(C)=C/C(=O)O)=CC(C)(C)CO2 [compound A, (2E,4E)-5-(3,3-dimethyl-7-methoxy-2,3-dihydrobenzoxepin-5-yl)-3-methylpenta-2,4-dienoic acid] | – | drop of plasma uric acid concentration ([1]; 50 mg (lowest tested dose)): around 45%; change in plasma uric acid concentration ([1]; all dose groups 50-1200 mg): dose dependant decrease; drop of plasma uric acid concentration (maximum effect) ([1]; from the 800 mg dose): 80%
